Measured values from patent publication US20230271950A1, “ANTIBACTERIAL PICOLINAMIDE COMPOUNDS” (University of Notre Dame Du Lac, priority 2020, published 2023).
Values after ≈ are worked out from the molar mass of the structure shown. Like-named read-outs stand apart in the source and are kept apart here.

What was measured:
C. difficile = test: MIC by broth microdilution against C. difficile strains; format: cell-based, Clostridioides difficile; conditions: Clostridioides difficile; for MIC: read-out: MIC
MRSA (NRS70, NRS119) = test: MIC against MRSA strains; format: cell-based, Staphylococcus aureus
S. aureus ATCC29213 = test: MIC against MSSA; format: cell-based, Staphylococcus aureus; conditions: Staphylococcus aureus; S. aureus ATCC29213; Table 1; read-out: MIC
Bacteroides fragilis = test: MIC against gut bacterium Bacteroides fragilis; format: cell-based; conditions: Bacteroides fragilis strain HM-709
Bifidobacterium longum = test: MIC against gut bacterium Bifidobacterium longum; format: cell-based; conditions: Bifidobacterium longum strain HM-846
Corynebacterium spp. = test: MIC against gut bacterium Corynebacterium spp.; format: cell-based; conditions: Corynebacterium spp. strain HM-784; Table 1
Fusobacterium nucleatum = test: MIC against gut bacterium Fusobacterium nucleatum; format: cell-based; conditions: Fusobacterium nucleatum strain HM-992
Lactobacillus reuteri = test: MIC against gut bacterium Lactobacillus reuteri; format: cell-based
Lactobacillus gasseri = test: MIC against gut bacterium Lactobacillus gasseri; format: cell-based
Veillonella sp. HM-49 = test: MIC against gut bacterium Veillonella sp.; format: cell-based
Eubacterium sp. = test: MIC against gut bacterium Eubacterium sp.; format: cell-based; conditions: Eubacterium sp. strain HM-178
[1] = test system: Fecal microbiota preparation; test: MIC against fecal microbiota preparation; format: cell-based; conditions: Fecal microbiota preparation from OpenBiome tested at 1000-fold dilution
Experimental: Minimum inhibitory concentrations (MIC). MICs for C. difficile strains and the common gut bacteria were determined using broth microdilution techniques as reported earlier using brucella broth supplemented with hemin and vitamin K or supplemented BHIS broth. Lactobacillus MRS broth was used for lactobacillus strains. Sodium lactate was supplemented in the media for Veillonella sp. […] All incubations, unless specified otherwise, were carried out at 24 h or 48 h at 37° C. in an anaerobic chamber (Whitley DG250 workstation, Microbiology International, Frederick, Md.). Corynebacterium and Lactobacillus species were incubated aerobically.

With `CN[C@H](CC(C)C)C(=O)N[C@H]1C(=O)N[C@@H](CC(N)=O)C(=O)N[C@H]2C(=O)N[C@H]3C(=O)N[C@H](C(=O)N[C@H](C(=O)O)c4cc(O)cc(O)c4-c4cc3ccc4O)[C@H](O)c3ccc(c(Cl)c3)Oc3cc2cc(c3O[C@@H]2O[C@H](CO)[C@@H](O)[C@H](O)[C@H]2O[C@H]2C[C@](C)(N)[C@H](O)[C@H](C)O2)Oc2ccc(cc2Cl)[C@H]1O` [VAN, vancomycin, reference compound] the MIC (C. difficile; ATCC43598, C. difficile ATCC43598, Table 7) was 1 µg/mL (≈ 0.69 µM), the MIC (C. difficile; ATCC43598, C. difficile ATCC43598, Table 9) was 1 µg/mL (≈ 0.69 µM) and the MIC (C. difficile; BAA1801, C. difficile BAA-1801, Table 7) was 0.25 µg/mL (≈ 0.173 µM). The MIC (C. difficile; BAA1801, C. difficile BAA-1801, Table 9) was 0.25 µg/mL (≈ 0.173 µM), the MIC (C. difficile; BAA1803, C. difficile BAA-1803, Table 7) was 2 µg/mL (≈ 1.38 µM) and the MIC (C. difficile; BAA1803, C. difficile BAA-1803, Table 9) was 2 µg/mL (≈ 1.38 µM). For the same compound, the MIC (C. difficile; BAA1804, C. difficile BAA-1804, Table 7) was 1 µg/mL (≈ 0.69 µM), the MIC (C. difficile; BAA1804, C. difficile BAA-1804, Table 9) was 1 µg/mL (≈ 0.69 µM) and the MIC (C. difficile; BAA1870, C. difficile BAA-1870 (NAP1, ribotype 27), Table 1) was 2 µg/mL (≈ 1.38 µM). It also gave an MIC (C. difficile; BAA1870, C. difficile BAA-1870, Table 7) of 2 µg/mL (≈ 1.38 µM), an MIC (C. difficile; BAA1870, C. difficile BAA-1870, Table 9) of 2 µg/mL (≈ 1.38 µM) and an MIC (C. difficile; C. difficile 23691 (VR, vancomycin-resistant), Table 7) of 4 µg/mL (≈ 2.76 µM). It also gave an MIC (C. difficile; C. difficile 23691, clinical isolate resistant to VAN, Table 1) of 4 µg/mL (≈ 2.76 µM), an MIC (C. difficile; C. difficile 23691, Table 9) of 4 µg/mL (≈ 2.76 µM) and an MIC (C. difficile; C. difficile 23828 (FR, fidaxomicin-resistant), Table 7) of 2 µg/mL (≈ 1.38 µM). It also gave an MIC (C. difficile; C. difficile 23828, clinical isolate resistant to FDX, Table 1) of 2 µg/mL (≈ 1.38 µM), an MIC (C. difficile; C. difficile 23828, Table 9) of 2 µg/mL (≈ 1.38 µM) and an MIC (C. difficile; C. difficile 24531 (VR, vancomycin-resistant), Table 7) of 4 µg/mL (≈ 2.76 µM). It also gave an MIC (C. difficile; C. difficile 24531, Table 9) of 4 µg/mL (≈ 2.76 µM), an MIC (C. difficile; C. difficile 24923 (VR, vancomycin-resistant), Table 7) of 8 µg/mL (≈ 5.52 µM) and an MIC (C. difficile; C. difficile 24923, Table 9) of 8 µg/mL (≈ 5.52 µM). The MIC (C. difficile; C. difficile 26675 (MR, metronidazole-resistant), Table 7) was 1 µg/mL (≈ 0.69 µM), the MIC (C. difficile; C. difficile 26675, clinical isolate resistant to MTZ, Table 1) was 1 µg/mL (≈ 0.69 µM) and the MIC (C. difficile; C. difficile 26675, Table 9) was 1 µg/mL (≈ 0.69 µM). The MIC (C. difficile; C. difficile 27081 (FR, fidaxomicin-resistant), Table 7) was 1 µg/mL (≈ 0.69 µM), the MIC (C. difficile; C. difficile 27081, Table 9) was 1 µg/mL (≈ 0.69 µM) and the MIC (C. difficile; C. difficile HM-89, Table 9) was 0.25 µg/mL (≈ 0.173 µM). For the same compound, the MIC (C. difficile; C. difficile NR49292, Table 7) was 0.25 µg/mL (≈ 0.173 µM), the MIC (C. difficile; C. difficile NR49292, Table 9) was 0.25 µg/mL (≈ 0.173 µM) and the MIC (C. difficile; C. difficile NR49294, Table 7) was 0.25 µg/mL (≈ 0.173 µM). It also gave an MIC (C. difficile; C. difficile NR49294, Table 9) of 0.25 µg/mL (≈ 0.173 µM), an MIC (C. difficile; C. difficile NR49318, Table 7) of 0.25 µg/mL (≈ 0.173 µM) and an MIC (C. difficile; C. difficile NR49318, Table 9) of 0.25 µg/mL (≈ 0.173 µM). It also gave an MIC (C. difficile; C. difficile NR-13427, Table 9) of 1 µg/mL (≈ 0.69 µM), an MIC (C. difficile; C. difficile NR-13428, Table 9) of 2 µg/mL (≈ 1.38 µM) and an MIC (C. difficile; C. difficile NR-13431, Table 9) of 0.25 µg/mL (≈ 0.173 µM). For the same compound, the MIC (C. difficile; C. difficile NR-13433, Table 9) was 1 µg/mL (≈ 0.69 µM), the MIC (C. difficile; C. difficile NR-32885, Table 9) was 1 µg/mL (≈ 0.69 µM) and the MIC (C. difficile; C. difficile NR-32889, Table 9) was 2 µg/mL (≈ 1.38 µM). The MIC (C. difficile; C. difficile NR-32890, Table 9) was 2 µg/mL (≈ 1.38 µM), the MIC (C. difficile; C. difficile NR-32891, Table 9) was 1 µg/mL (≈ 0.69 µM) and the MIC (C. difficile; C. difficile NR-32895, Table 9) was 2 µg/mL (≈ 1.38 µM). The MIC (C. difficile; C. difficile NR-32896, Table 9) was 2 µg/mL (≈ 1.38 µM), the MIC (C. difficile; C. difficile NR-32897, Table 9) was 0.25 µg/mL (≈ 0.173 µM) and the MIC (C. difficile; C. difficile NR-32900, Table 9) was 1 µg/mL (≈ 0.69 µM). The MIC (C. difficile; C. difficile NR-32904, Table 9) was 0.25 µg/mL (≈ 0.173 µM), the MIC (C. difficile; C. difficile NR-49280, Table 9) was 1 µg/mL (≈ 0.69 µM) and the MIC (C. difficile; C. difficile NR-49285, Table 9) was 0.25 µg/mL (≈ 0.173 µM). The MIC (C. difficile; C. difficile NR-49291, Table 9) was 1 µg/mL (≈ 0.69 µM), the MIC (C. difficile; C. difficile NR-49298, Table 9) was 1 µg/mL (≈ 0.69 µM) and the MIC (C. difficile; C. difficile NR-49306, Table 9) was 1 µg/mL (≈ 0.69 µM). The MIC (C. difficile; C. difficile NR-49307, Table 9) was 1 µg/mL (≈ 0.69 µM), the MIC (C. difficile; C. difficile NR-49309, Table 9) was 1 µg/mL (≈ 0.69 µM) and the MIC (C. difficile; C. difficile NR-49320, Table 9) was 1 µg/mL (≈ 0.69 µM). It also gave an MIC (C. difficile; C. difficile NR-49321, Table 9) of 0.25 µg/mL (≈ 0.173 µM), an MIC (C. difficile; C. difficile NR-49328, Table 9) of 0.25 µg/mL (≈ 0.173 µM) and an MIC (C. difficile; C. difficile NR-49329, Table 9) of 0.25 µg/mL (≈ 0.173 µM). It also gave an MIC90 (C. difficile; read-out: MIC90 (101 strains)) of 2 µg/mL (≈ 1.38 µM), an MIC (MRSA (NRS70, NRS119); MRSA NRS70, Table 7) of 2 µg/mL (≈ 1.38 µM) and an MIC (MRSA (NRS70, NRS119); MRSA NRS119, Table 1) of 2 µg/mL (≈ 1.38 µM). It also gave an MIC (MRSA (NRS70, NRS119); Staphylococcus aureus, MRSA NRS70, Table 1, read-out: MIC) of 2 µg/mL (≈ 1.38 µM), an MIC (S. aureus ATCC29213) of 1 µg/mL (≈ 0.69 µM) and an MIC (Bacteroides fragilis; Table 1, read-out: MIC) of 16 µg/mL (≈ 11 µM). The MIC (Bacteroides fragilis; Table 7) was 16 µg/mL (≈ 11 µM), the MIC (Bifidobacterium longum; Table 1, read-out: MIC) was 0.25 µg/mL (≈ 0.173 µM) and the MIC (Bifidobacterium longum; Table 7) was 0.25 µg/mL (≈ 0.173 µM). For the same compound, the MIC (Corynebacterium spp.) was 0.25 µg/mL (≈ 0.173 µM), the MIC (Fusobacterium nucleatum; Table 1, read-out: MIC) was 0.25 µg/mL (≈ 0.173 µM) and the MIC (Fusobacterium nucleatum; Table 7) was 0.25 µg/mL (≈ 0.173 µM). For the same compound, the MIC (Lactobacillus reuteri; Lactobacillus reuteri strain HM-102, Table 7) was over 32 µg/mL, the MIC (Lactobacillus reuteri; Limosilactobacillus reuteri, Lactobacillus reuter strain HM-102, Table 1, read-out: MIC) was over 32 µg/mL and the MIC (Lactobacillus gasseri; Lactobacillus gasseri strain HM-644, Table 7) was 1 µg/mL (≈ 0.69 µM). For the same compound, the MIC (Lactobacillus gasseri; Lactobacillus gasseri, Lactobacillus gasser strain HM-644, Table 1, read-out: MIC) was 1 µg/mL (≈ 0.69 µM), the MIC (Veillonella sp. HM-49; SP.HM49, Veillonella sp. HM-49, Table 1, read-out: MIC) was over 32 µg/mL and the MIC (Veillonella sp. HM-49; Veillonella sp. strain HM-49, Table 7) was over 32 µg/mL. It also gave an MIC (Eubacterium sp.; Table 1, read-out: MIC) of 2 µg/mL (≈ 1.38 µM), an MIC (Eubacterium sp.; Table 7) of 2 µg/mL (≈ 1.38 µM) and an MIC [1] of over 128 µg/mL.
